Data: patent publication EP0048613B1, “4-0-Substituted -2-deoxystreptamine aminoglycoside derivatives, their preparation and formulations containing them” (ELI LILLY AND COMPANY, priority 1980, dated 1982)
≈ marks a conversion by molar mass, not a printed value.

Experiments:
Escherichia coli EC14 = assay: MIC, standard agar dilution test; assay type: cell-based
Text: (§1) The antibacterial activity of the deprotected compounds of this invention is illustrated by the following in vitro and in vivo test data obtained with representative compounds. In Table I, the minimum inhibitory concentration (MIC) for representative compounds against a wide range of gram-positive and gram-negative bacteria is presented. The MIC values were obtained by the standard agar dilution test.

Serratia marcescens SE3 = assay: MIC, standard agar dilution test; assay type: cell-based
Text: as §1

Proteus morganii PR15 = assay: MIC, standard agar dilution test; assay type: cell-based
Text: as §1

[1] = test system: Citrobacter freundii CF17; assay: MIC, standard agar dilution test; assay type: cell-based
Text: as §1

[2] = test system: Streptococcus group D X66; assay: MIC, standard agar dilution test; assay type: cell-based
Text: as §1

[3] = test system: Pseudomonas aeruginosa X528; assay: MIC, standard agar dilution test; assay type: cell-based
Text: as §1

[4] = test system: Staphylococcus aureus X400; assay: MIC, standard agar dilution test; assay type: cell-based
Text: as §1

Serratia marcescens X99 = assay: MIC, standard agar dilution test; assay type: cell-based
Text: as §1

[5] = test system: Streptococcus group D 9960; assay: MIC, standard agar dilution test; assay type: cell-based
Text: as §1

[6] = test system: Streptococcus pneumoniae Park I; assay: MIC, standard agar dilution test; assay type: cell-based; conditions: for Minimum inhibitory concentration: Streptococcus pneumoniae Park I, agar dilution
Text: as §1

[7] = test system: Hemophilus influenzae C.L.; assay: MIC, standard agar dilution test; assay type: cell-based
Text: as §1

[8] = test system: Staphylococcus aureus V41; assay: MIC, standard agar dilution test; assay type: cell-based
Text: as §1

Enterobacter cloacae EB5 = assay: MIC, standard agar dilution test; assay type: cell-based
Text: as §1

[9] = test system: Pseudomonas aeruginosa X239; assay: MIC, standard agar dilution test; assay type: cell-based
Text: as §1

Escherichia coli TEM = assay: MIC, standard agar dilution test; assay type: cell-based; conditions: for Minimum inhibitory concentration: Escherichia coli TEM, agar dilution
Text: as §1

[10] = test system: Staphylococcus aureus X1.1; assay: MIC, standard agar dilution test; assay type: cell-based
Text: as §1

Proteus rettgeri C24 = assay: MIC, standard agar dilution test; assay type: cell-based
Text: as §1

[11] = test system: Salmonella typhimurium 1335; assay: MIC, standard agar dilution test; assay type: cell-based
Text: as §1

[12] = test system: Klebsiella pneumoniae KAE; assay: MIC, standard agar dilution test; assay type: cell-based
Text: as §1

[13] = test system: Staphylococcus epidermidis EPI1; assay: MIC, standard agar dilution test; assay type: cell-based; conditions: for Minimum inhibitory concentration: Staphylococcus epidermidis EPI1, agar dilution
Text: as §1

Proteus rettgeri PR7 = assay: MIC, standard agar dilution test; assay type: cell-based
Text: as §1

[14] = test system: Enterobacter aerogenes C32; assay: MIC, standard agar dilution test; assay type: cell-based
Text: as §1

[15] = test system: Enterobacter aerogenes X68; assay: MIC, standard agar dilution test; assay type: cell-based
Text: as §1

[16] = test system: Bordetella bronchiseptica 16; assay: MIC, standard agar dilution test; assay type: cell-based
Text: as §1

Hemophilus influenzae 76 = assay: MIC, standard agar dilution test; assay type: cell-based
Text: as §1

[17] = test system: Enterobacter cloacae 265A; assay: MIC, standard agar dilution test; assay type: cell-based
Text: as §1

Proteus inconstans PR33 = assay: MIC, standard agar dilution test; assay type: cell-based
Text: as §1

[18] = test system: Enterobacter aerogenes EB17; assay: MIC, standard agar dilution test; assay type: cell-based
Text: as §1

Escherichia coli N10 = assay: MIC, standard agar dilution test; assay type: cell-based
Text: as §1

[19] = test system: Staphylococcus epidermidis EPI2; assay: MIC, standard agar dilution test; assay type: cell-based
Text: as §1

[20] = test system: Staphylococcus aureus S13E; assay: MIC, standard agar dilution test; assay type: cell-based; conditions: for Minimum inhibitory concentration: Staphylococcus aureus S13E, agar dilution
Text: as §1

[21] = test system: Pseudomonas aeruginosa Ps18; assay: MIC, standard agar dilution test; assay type: cell-based
Text: as §1

[22] = test system: Salmonella heidelberg X514; assay: MIC, standard agar dilution test; assay type: cell-based
Text: as §1

Shigella sonnei N9 = assay: MIC, standard agar dilution test; assay type: cell-based
Text: as §1

[23] = test system: Streptococcus pyogenes C203; assay: MIC, standard agar dilution test; assay type: cell-based
Text: as §1

[24] = test system: Klebsiella pneumoniae X26; assay: MIC, standard agar dilution test; assay type: cell-based
Text: as §1

[25] = test system: Staphylococcus aureus 3055; assay: Subcutaneous therapy of experimental bacterial infection in mice; assay type: in vivo; conditions: subcutaneous doses at 1 and 5 hours post infection
Description: Table II illustrates the effective dose (ED50, effective dose to protect 50 percent of the test animals) for representative compounds of this invention against an experimental bacterial infection in mice.
The EDso values were determined as described by W. E. Wick et al., Journal of Bacteriology, 81 [No. 2], 233-235 (1961).

[26] = read-out: Minimum inhibitory concentration
[27] = Haemophilus influenzae, read-out: Minimum inhibitory concentration
[28] = Providencia rettgeri, read-out: Minimum inhibitory concentration
[29] = Salmonella enterica, read-out: Minimum inhibitory concentration
[30] = Klebsiella aerogenes, read-out: Minimum inhibitory concentration

With “2′-N-(RS-γ-Amino-α-hydroxybutyryl)apramycin [Test compound 2]” the Minimum inhibitory concentration (Escherichia coli EC14) was 32 µg/mL, the Minimum inhibitory concentration (Serratia marcescens SE3) was 32 µg/mL and the Minimum inhibitory concentration (Proteus morganii PR15) was 128 µg/mL. For the same compound, the Minimum inhibitory concentration [1] was 32 µg/mL, the Minimum inhibitory concentration [2] was greater than 128 µg/mL and the Minimum inhibitory concentration [3] was 128 µg/mL. For the same compound, the Minimum inhibitory concentration [4] was 64 µg/mL, the Minimum inhibitory concentration (Serratia marcescens X99) was 16 µg/mL and the Minimum inhibitory concentration [5] was greater than 128 µg/mL. The Minimum inhibitory concentration [6] was 32 µg/mL, the Minimum inhibitory concentration [7] was 32 µg/mL and the Minimum inhibitory concentration [8] was 32 µg/mL. For the same compound, the Minimum inhibitory concentration (Enterobacter cloacae EB5) was 32 µg/mL, the Minimum inhibitory concentration [9] was 128 µg/mL and the Minimum inhibitory concentration (Escherichia coli TEM) was 8 µg/mL. For the same compound, the Minimum inhibitory concentration [10] was 16 µg/mL, the Minimum inhibitory concentration (Proteus rettgeri C24) was 16 µg/mL and the Minimum inhibitory concentration [11] was 32 µg/mL. The Minimum inhibitory concentration [12] was 32 µg/mL, the Minimum inhibitory concentration [13] was 16 µg/mL and the Minimum inhibitory concentration (Proteus rettgeri PR7) was 16 µg/mL. It also gave a Minimum inhibitory concentration [14] of 16 µg/mL, a Minimum inhibitory concentration [15] of 16 µg/mL and a Minimum inhibitory concentration [16] of 128 µg/mL. For the same compound, the Minimum inhibitory concentration (Hemophilus influenzae 76) was 32 µg/mL, the Minimum inhibitory concentration [17] was 64 µg/mL and the Minimum inhibitory concentration (Proteus inconstans PR33) was 32 µg/mL. For the same compound, the Minimum inhibitory concentration [18] was 32 µg/mL, the Minimum inhibitory concentration (Escherichia coli N10) was 16 µg/mL and the Minimum inhibitory concentration [19] was 8 µg/mL. For the same compound, the Minimum inhibitory concentration [20] was 16 µg/mL, the Minimum inhibitory concentration [21] was 128 µg/mL and the Minimum inhibitory concentration [22] was 32 µg/mL. For the same compound, the Minimum inhibitory concentration (Shigella sonnei N9) was 32 µg/mL, the Minimum inhibitory concentration [23] was 32 µg/mL and the Minimum inhibitory concentration [24] was 8 µg/mL. For the same compound, the “Effective dose (ED50)” value ([25]; challenged with 331 LD50's) was 21.8^2 mg/kg×2.
“2′-N-(S-γ-Amino-α-hydroxybutyryl)nebramine [Test compound 5]” was tested, and the Minimum inhibitory concentration (Escherichia coli EC14) was greater than 128 µg/mL, the Minimum inhibitory concentration (Serratia marcescens SE3) was greater than 128 µg/mL and the Minimum inhibitory concentration (Proteus morganii PR15) was 64 µg/mL. For the same compound, the Minimum inhibitory concentration [1] was 64 µg/mL, the Minimum inhibitory concentration [2] was greater than 128 µg/mL and the Minimum inhibitory concentration [3] was greater than 128 µg/mL. It also gave a Minimum inhibitory concentration [4] of 64 µg/mL, a Minimum inhibitory concentration (Serratia marcescens X99) of 128 µg/mL and a Minimum inhibitory concentration [5] greater than 128 µg/mL. It also gave a Minimum inhibitory concentration [6] of 128 µg/mL, a Minimum inhibitory concentration [7] of 64 µg/mL and a Minimum inhibitory concentration [8] of 64 µg/mL. The Minimum inhibitory concentration (Enterobacter cloacae EB5) was 128 µg/mL, the Minimum inhibitory concentration [9] was 128 µg/mL and the Minimum inhibitory concentration (Escherichia coli TEM) was 32 µg/mL. The Minimum inhibitory concentration [10] was 32 µg/mL, the Minimum inhibitory concentration (Proteus rettgeri C24) was 64 µg/mL and the Minimum inhibitory concentration [11] was 128 µg/mL. For the same compound, the Minimum inhibitory concentration [12] was 64 µg/mL, the Minimum inhibitory concentration [13] was 64 µg/mL and the Minimum inhibitory concentration (Proteus rettgeri PR7) was 32 µg/mL. It also gave a Minimum inhibitory concentration [14] of 64 µg/mL, a Minimum inhibitory concentration [15] of 64 µg/mL and a Minimum inhibitory concentration [16] greater than 128 µg/mL. It also gave a Minimum inhibitory concentration (Hemophilus influenzae 76) of 64 µg/mL, a Minimum inhibitory concentration [17] greater than 128 µg/mL and a Minimum inhibitory concentration (Proteus inconstans PR33) of 64 µg/mL. It also gave a Minimum inhibitory concentration [18] of 64 µg/mL, a Minimum inhibitory concentration (Escherichia coli N10) of 128 µg/mL and a Minimum inhibitory concentration [19] of 32 µg/mL. For the same compound, the Minimum inhibitory concentration [20] was 32 µg/mL, the Minimum inhibitory concentration [21] was 128 µg/mL and the Minimum inhibitory concentration [22] was 128 µg/mL. For the same compound, the Minimum inhibitory concentration (Shigella sonnei N9) was 64 µg/mL, the Minimum inhibitory concentration [23] was 128 µg/mL and the Minimum inhibitory concentration [24] was 64 µg/mL. For the same compound, the “Effective dose (ED50)” value ([25]; challenged with 1794 LD50's) was >70^3 mg/kg×2.
Work on `CNC1C(OC2OC(CO)C(N)C(O)C2O)OC2CC(NC(=O)C(O)CCN)C(OC3C(N)CC(N)C(O)C3O)OC2C1O` (stereo not drawn) [Test compound 1, 2′-N-(S-γ-Amino-α-hydroxybutyryl)apramycin] yielded an MIC (Escherichia coli EC14; [26]) of 32 µg/mL (≈ 49.9 µM), an MIC (Serratia marcescens SE3; [26]) of 32 µg/mL (≈ 49.9 µM) and an MIC (Proteus morganii PR15; Morganella morganii, read-out: Minimum inhibitory concentration) of 128 µg/mL (≈ 200 µM). The MIC [1, 26] was 32 µg/mL (≈ 49.9 µM), the MIC ([2]; DX66, read-out: Minimum inhibitory concentration) was greater than 128 µg/mL and the MIC [3, 26] was 128 µg/mL (≈ 200 µM). For the same compound, the MIC [4, 26] was 64 µg/mL (≈ 99.9 µM), the MIC (Serratia marcescens X99; [26]) was 16 µg/mL (≈ 25 µM) and the MIC ([5]; D9960, read-out: Minimum inhibitory concentration) was greater than 128 µg/mL. For the same compound, the MIC ([6]; Streptococcus pneumoniae, read-out: Minimum inhibitory concentration) was 32 µg/mL (≈ 49.9 µM), the MIC [7, 27] was 64 µg/mL (≈ 99.9 µM) and the MIC [8, 26] was 32 µg/mL (≈ 49.9 µM). The MIC (Enterobacter cloacae EB5; [26]) was 32 µg/mL (≈ 49.9 µM), the MIC [9, 26] was 64 µg/mL (≈ 99.9 µM) and the MIC (Escherichia coli TEM; Escherichia coli, read-out: Minimum inhibitory concentration) was 8 µg/mL (≈ 12.5 µM). The MIC [10, 26] was 16 µg/mL (≈ 25 µM), the MIC (Proteus rettgeri C24; [28]) was 16 µg/mL (≈ 25 µM) and the MIC [11, 29] was 16 µg/mL (≈ 25 µM). For the same compound, the MIC [12, 26] was 16 µg/mL (≈ 25 µM), the MIC ([13]; Staphylococcus epidermidis, EPI1, read-out: Minimum inhibitory concentration) was 16 µg/mL (≈ 25 µM) and the MIC (Proteus rettgeri PR7; [28]) was 8 µg/mL (≈ 12.5 µM). The MIC [14, 30] was 16 µg/mL (≈ 25 µM), the MIC [15, 30] was 16 µg/mL (≈ 25 µM) and the MIC [16, 26] was 128 µg/mL (≈ 200 µM). It also gave an MIC (Hemophilus influenzae 76; [27]) of 32 µg/mL (≈ 49.9 µM), an MIC [17, 26] of 64 µg/mL (≈ 99.9 µM) and an MIC (Proteus inconstans PR33; Providencia alcalifaciens, read-out: Minimum inhibitory concentration) of 16 µg/mL (≈ 25 µM). The MIC [18, 30] was 16 µg/mL (≈ 25 µM), the MIC (Escherichia coli N10; [26]) was 16 µg/mL (≈ 25 µM) and the MIC [19, 26] was 4 µg/mL (≈ 6.24 µM). For the same compound, the MIC ([20]; Staphylococcus aureus, S13E, read-out: Minimum inhibitory concentration) was 16 µg/mL (≈ 25 µM), the MIC [21, 26] was 128 µg/mL (≈ 200 µM) and the MIC [22, 29] was 32 µg/mL (≈ 49.9 µM). For the same compound, the MIC (Shigella sonnei N9; [26]) was 32 µg/mL (≈ 49.9 µM), the MIC [23, 26] was 32 µg/mL (≈ 49.9 µM) and the MIC [24, 26] was 8 µg/mL (≈ 12.5 µM). For the same compound, the ED50 ([25]; Staphylococcus aureus, 3055, sc, challenged with 68.1 LD50's, read-out: Effective dose (ED50)) was 6.5 mg/kg.
